{"source": "paper PMC12586598", "about": "“A novel long-acting C5a-blocking cyclic peptide prevents sepsis-induced organ dysfunction via effective blockade of the inflammatory cascade” (Signal Transduction and Targeted Therapy, 2025)", "key": {"[1]": {"conditions": "mouse, 24 h", "from_the_text": "The peptides in the plasma were extracted with 15% TFA and quantified via reversed-phase high-performance liquid chromatography (HPLC) (Agilent 1260, USA)."}, "[2]": {"test_system": "PMNs", "assay": "Neutrophil phagocytosis (BioParticles and live bacteria), flow cytometry", "assay_type": "cell-based, human", "conditions": "6 h hC5a stimulation; E. coli and S. aureus BioParticles and live bacteria", "experimental": "To assess the phagocytic function of neutrophils, PMNs were stimulated with hC5a or hC5a/Cp1 complexes for 6 h, followed by incubation with 20 μL of Red E. coli BioParticles™ or Green S. aureus BioParticles™ (Invitrogen, USA) at 37 °C for 0.5 h in the dark.[44] After being washed with precooled PBS and centrifuged (40 × g, 5 min), the samples were subjected to flow cytometric quantification for phagocytosis analysis. For the live bacterial phagocytosis assay, 2 × 10^5 PMNs were prestimulated with 100 ng of hC5a or hC5a/Cp1 complexes for 6 h. The PMNs were incubated with DMAO-labeled E. coli (ATCC 25922) or S. aureus (ATCC 29213) at an MOI (multiplicity of infection) of 10 for 0.5 h at 37 °C in the dark, followed by pretreatment with precooled gentamicin (50 μg/mL). The intracellular fluorescence intensity of PMNs was quantified via flow cytometry."}, "[3]": {"molecular_target": "T1, human C5a (Homo sapiens, UniProt P01031)", "T1 construct": "human C5a (ACROBiosystems, Beijing, China); purchased ACROBiosystems", "T1 sequence (P01031 678-751 limits assumed)": "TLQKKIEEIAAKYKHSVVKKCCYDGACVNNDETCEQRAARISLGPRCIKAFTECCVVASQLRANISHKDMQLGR", "assay": "SPR binding affinity assay, immobilized human C5a", "experimental": "Surface plasmon resonance (SPR) analysis was conducted using Biacore 2000 system (GE Healthcare, Germany) at 37°C in running buffer (20 mM Tris-HCl, pH 7.4, 150 mM NaCl, 5 mM KCl, 1 mM MgCl₂, 1 mM CaCl₂). The CM5 sensor chips (GE Healthcare) were activated with NHS/EDC, followed by immobilization of mouse C5a (ACROBiosystems, Beijing, China), human C5a (ACROBiosystems, Beijing, China), mouse C5 (ACROBiosystems, Beijing, China) or mouse C5a-desArg (MCE, Shanghai, China). The peptide-protein interactions were characterized using a concentration-gradient approach (low to high) with a continuous flow rate of 30 μL/min (150 s injection duration). Between analyte concentrations, the sensor surface was regenerated with 10 mM glycine-HCl (pH 2.0; 5 min treatment). Binding and dissociation constants were obtained by globally fitting the data to a 1:1 Langmuir binding model using a Biacore Insight evaluation software (Cytiva, USA)."}, "[4]": {"test_system": "CLP-induced septic mice", "assay": "Inflammatory factors and chemokines in plasma, Luminex, CLP mice", "assay_type": "in vivo, mouse", "experimental": "Twenty-four hours later, whole blood and PLF were collected under anesthesia. The plasma and PLF supernatants were further isolated via centrifugation (3000 × g, 10 min, 4 °C) and subjected to inflammatory factor and chemokine profiling via the Luminex® multiplex […] Biotechnologies, Shanghai, China). The percent inhibition was calculated relative to that of the sham group (set as 0%)."}, "[5]": {"test_system": "mouse neutrophils", "assay": "C5a-triggered chemotaxis assay, mouse neutrophils (IncuCyte)", "assay_type": "cell-based", "conditions": "10 ng to 1 μg per well, 24 h", "experimental": "The chemotaxis assay in this study was monitored and quantified by the IncuCyte ZOOM® Live-Cell Imaging System. The y-axis label “total area normalized to initial area in each group” in Fig. 3k, m represent the ratio of the total cell area at each time point to the initial area (0 h) within the same field of view. A higher ratio indicates […] cell migration activity.\nOne hundred nanograms of human C5a protein (ACROBiosystems, Beijing, China) was preincubated with linear or cyclic peptides at the indicated concentrations (10 ng, 100 ng, or 1 μg) in 1640 complete culture medium for 30 min. PMNs isolated by flow cytometric sorting for chemotaxis assays were purchased from Oribiotech Co., Ltd. (Shanghai, China). A total of 1 × 10^4 cells were added to the upper chamber of 96-well cell chemotaxis plates (Sartorius, Germany) and allowed to migrate at 37 °C for 24 h. The chemotactic response of neutrophils toward C5a with or without C5a-blocking peptides was quantified and analyzed via an IncuCyte ZOOM® Live-Cell Imaging System (Sartorius, Germany). The chemotactic response of mouse neutrophils was assessed following the established protocol for PMNs."}, "[6]": {"test_system": "CLP-induced septic mice", "assay": "Bacterial burden in blood (CFU) of CLP mice", "assay_type": "in vivo, mouse", "experimental": "Whole blood samples were aseptically dropped onto nutrient agar plates. Glass beads were added, and the samples were rocked horizontally to ensure the uniform distribution of blood samples. The inoculated plates were incubated at 37 °C for 24 h, after which colony-forming units (CFUs) were counted. The colonies on the culture plates were counted via ProtoCOL 3 HD (Synbiosis, UK)."}, "[7]": {"test_system": "CLP-treated mice", "assay": "Response to secondary infection, short-term exposure: LPS stimulation of whole blood", "assay_type": "in vivo, mouse", "conditions": "blood taken 24 h post-CLP surgery, 1 μg LPS", "experimental": "To evaluate the impact of short-term (24 h) drug exposure on the secondary infection response. Whole blood samples were collected from each group at 24 h post-CLP surgery and stimulated with 1 μg of LPS. The IL-6 levels at 0 h, 2 h, and 4 h poststimulation were quantified via an ELISA kit."}, "[8]": {"conditions": "100 μg/20 g, 24 h after CLP surgery"}}, "note": "Where a SMILES comes first, the peptide text is derived from it.", "data": [{"smiles": "CSCC[C@@H]1NC(=O)[C@@H]2CCCN2C(=O)[C@H](CCSC)NC(=O)[C@H](CO)NC(=O)[C@H](Cc2c[nH]cn2)NC(=O)CNC(=O)[C@H](CO)NC(=O)[C@H](Cc2ccccc2)NC(=O)[C@H](CCCNC(=N)N)NC(=O)[C@H](CCC(=O)O)NC(=O)[C@H](Cc2ccccc2)NC(=O)[C@H](C(C)C)NC1=O", "note": "[Cp1] (cyclo(HSMPMVFERFSG))", "values": [{"measurement": "stability in normal plasma", "setting": "[1]", "value": "comparable stabilities"}, {"measurement": "effect on C5a-induced phagocytic impairment in PMNs", "setting": "[2]", "value": "effectively mitigated C5a-induced phagocytic impairment"}, {"measurement": "kon", "setting": "[3]; pH 7.4, read-out: Ka vs hC5a (SPR)", "value": 53300, "unit": "M⁻¹ s⁻¹"}, {"measurement": "koff", "setting": "[3]; read-out: Kd (dissociation rate) vs hC5a (SPR)", "value": 0.395, "unit": "s⁻¹"}, {"measurement": "decrease in plasma CCL2 level", "setting": "[4]; [8]", "value": 21.7, "unit": "fold"}, {"measurement": "decrease in plasma CCL3 level", "setting": "[4]; [8]", "value": 81.9, "unit": "fold"}, {"measurement": "decrease in plasma CCL4 level", "setting": "[4]; [8]", "value": 24.8, "unit": "fold"}, {"measurement": "decrease in plasma CCL5 level", "setting": "[4]; [8]", "value": 18.6, "unit": "fold"}, {"measurement": "decrease in plasma CCL7 level", "setting": "[4]; [8]", "value": 102.3, "unit": "fold"}, {"measurement": "decrease in plasma CXCL1 level", "setting": "[4]; [8]", "value": 61.7, "unit": "fold"}, {"measurement": "decrease in plasma CXCL5 level", "setting": "[4]; [8]", "value": 4.3, "unit": "fold"}, {"measurement": "decrease in plasma IL-1β level vs CLP group", "setting": "[4]; [8]", "value": 94, "unit": "%"}, {"measurement": "decrease in plasma IL-6 level vs CLP group", "setting": "[4]; [8]", "value": 99, "unit": "%"}, {"measurement": "decrease in plasma TNF-α level vs CLP group", "setting": "[4]; [8]", "value": 86, "unit": "%"}, {"measurement": "reduction in plasma IL-1β level", "setting": "[4]; 100 μg/20 g, Luminex (Fig. 4a)", "value": 18.6, "unit": "fold"}, {"measurement": "expression of inflammatory factors and chemokines in plasma, high dose", "setting": "[4]; 300 μg of Cp1", "value": "effectively suppressed"}, {"measurement": "plasma IL-17A, IFN-γ, GM-CSF, and CX3CL1 levels", "setting": "[4]; 24 h after CLP surgery", "value": "significantly decreased"}, {"measurement": "lowest effective dose with significant pharmacological activity", "setting": "[4]; preliminary titrations", "value": 100, "unit": "μg"}, {"measurement": "suppression of C5a-driven recruitment of mouse neutrophils", "setting": "[5]", "value": "dose-dependently suppressed"}, {"measurement": "reduction of bacterial burden (CFUs/mL in blood) vs CLP", "setting": "[6]; 100 μg Cp1, 24 h post-CLP", "value": 93, "unit": "%"}, {"measurement": "reduction of bacterial burden (CFUs/mL in blood) vs CLP", "setting": "[6]; 300 μg Cp1, 24 h post-CLP", "value": 86, "unit": "%"}, {"measurement": "IL-6 level at 2 h post-LPS stimulation vs CLP control group", "setting": "[7]", "value": "obviously increased IL-6 levels"}]}]}
